This note sets out measurements from the supplement of paper PMC3974653.

The structures appear in SMILES notation. Counter-ions that a name gives are not always drawn. Bounds are passed on as bounds.

The test deals with MTT (mouse pheochromocytoma). Put plainly: IC50 of cell viability (ATP content). Particulars: (24 or 48 h). The procedure, abridged: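 Each well of a white 1536-well plate received 5 µl of MTT mouse pheochromocytoma cells at 200,000 cells/ml in DMEM containing 5% FBS and 1% horse serum. After overnight culture at 37°C, 5% CO2, cells were exposed for 24 or 48 hrs to 23 nl of library compound in DMSO, pinned at 8 final concentrations from 0.5 nM to 46 µM. CellTiter-Glo luminescence was read after 15 minutes, and IC50 was obtained from a four-parameter logistic fit of signals normalised to positive-control and DMSO wells.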
On to `C[C@@]12CC(O)[C@]3(F)C(CCC/4=C/C(=O)/C=C\[C@@]34C)C1CC(O)[C@@]2(O)C(=O)CO` (stereo not given in full) [TRIAMCINOLONE], for which the “IC50 of cell viability” value was above 46 µM.

For `CC1=NN=C2C\N=C(\C3=C(Cl)C=CC=C3)C4=C(C=CC(=C4)Cl)[N]12` [TRIAZOLAM], the “IC50 of cell viability” value is above 46 µM. The value for `O=C(Nc1ccc(Br)cc1)c1cc(Br)cc(Br)c1O` [TRIBROMSALAN] was above 46 µM.

Turning to `CCOC(=O)c1cccc(N)c1` [TRICAINE METHANESULFONATE], the “IC50 of cell viability” value is above 46 µM. With `O[C@H]1[C@H]2[C@H](O)CCCN2C[C@H]1O` [TRIDOLGOSIRUM], the “IC50 of cell viability” value was above 46 µM. The value for `OCCOCCOCCO` [TRIETHYLENE GLYCOL] was above 46 µM; that for `CC(CN(C)C)CN1c2ccccc2Sc2ccc(C(F)(F)F)cc21` (stereo not given) [TRIFLUOMEPRAZINE MALEATE] was above 46 µM. As for `CN(C)CCCN1c2ccccc2Sc2ccc(C(F)(F)F)cc21.Cl` [TRIFLUPROMAZINE HYDROCHLORIDE], the figure is above 46 µM.

Turning to `Cl.OC(CCN1CCCCC1)(c1ccccc1)C1CCCCC1` (stereo not given) [TRIHEXYPHENIDYL HYDROCHLORIDE], the “IC50 of cell viability” value is above 46 µM. As for `C[C@]12CC[C@H]3[C@@H](CC[C@@]45O[C@@H]4C(=O)C(C#N)C[C@]35C)[C@@H]1CC[C@@H]2O` (stereo not given in full) [TRILOSTANE], the figure is above 46 µM; as for `CCC(COC(=O)c1cc(OC)c(OC)c(OC)c1)(c1ccccc1)N(C)C.O=C(O)/C=C\C(=O)O` (stereo not given) [TRIMEBUTINE MALEATE], above 46 µM; as for `CC12CCC(C[N+](C)(CCC[N+](C)(C)C)C1)C2(C)C` (stereo not given) [TRIMETHIDINII METHOSULFAS], above 46 µM. On to `COc1cc(C(=O)N2CCOCC2)cc(OC)c1OC` [TRIMETOZINUM], for which the “IC50 of cell viability” value is above 46 µM. The value for `FC(F)(F)c1ccccc1-n1ccnc1` [TRIM] was above 46 µM; that for `CN(C)CCN(Cc1ccccc1)c1ccccn1.O=C(O)CC(O)(CC(=O)O)C(=O)O` [TRIPELENNAMINE CITRATE] was above 46 µM; that for `CC(C)C[C@H](NC(=O)[C@@H](Cc1c[nH]c2ccccc12)NC(=O)[C@@H](Cc1ccc(O)cc1)NC(=O)[C@@H](CO)NC(=O)[C@@H](Cc1c[nH]c2ccccc12)NC(=O)C(Cc1c[nH]cn1)NC(=O)C1CCC(=O)N1)C(=O)N[C@@H](CCCNC(=N)N)C(=O)N1CCC[C@@H]1C(=O)NCC(N)=O` (stereo not given in full) [TRIPTORELIN PAMOATE] was above 46 µM. For `COc1cc(C(=O)N2CCCCCCC2)cc(OC)c1OC` [TROCIMINUM], the “IC50 of cell viability” value was above 46 µM. For `NC(CO)(CO)CO` [TROMETHAMINE], the “IC50 of cell viability” value is above 46 µM. The value for `Cc1cc(C)cc(C(=O)OC2CC3CCC(C2)N3C)c1` (stereo not given) [TROPANYL 3,5-DIMETHYLBENZOATE] was above 46 µM; that for `CCN(Cc1ccncc1)C(=O)C(CO)c1ccccc1` (stereo not given) [TROPICAMIDE] was above 46 µM. `CN1C2CCC1CC(OC(=O)c1c[nH]c3ccccc13)C2` (stereo not given) [TROPISETRON]: the “IC50 of cell viability” value was above 46 µM. As for `O=C(O[C@H]1C[C@H]2CC[C@@H](C1)[N+]21CCCC1)C(O)(c1ccccc1)c1ccccc1` [TROSPIUM CHLORIDE], the figure is above 46 µM; as for `NC1C2CN(CC12)C3=NC4=C(C=C3F)C(=O)C(=C/N4C5=CC=C(F)C=C5F)\C(O)=O` (stereo not given) [TROVAFLOXACIN MESYLATE], above 46 µM. As for `NC/1=N/C(=O)N(/C=C1)[C@H]2CO[C@H](CO)O2` [TROXACITABINE (Troxatyl)], the figure is above 46 µM; as for `CC1OC(OCC2OC(OC/3=C(/OC4=C(C(=CC(=C4)OCCO)O)C3=O)C5=CC=C(OCCO)C(=C5)OCCO)C(O)C(O)C2O)[C@@H](O)C(O)C1O` (stereo not given in full) [TROXERUTIN], above 46 µM; as for `COc1cc(C(=O)NC2CCCNC2)cc(OC)c1OC` (stereo not given) [TROXIPIDE], above 46 µM. The value for `CCCCCC(C)N.O=[S+]([O-])(O)O` (stereo not given) [TUAMINOHEPTANE SULFATE] was above 46 µM; that for `CC(C)(C)NCC(O)c1ccccc1Cl.Cl` (stereo not given) [TULOBUTEROL] was above 46 µM; that for `CCC1OC(=O)CC(O)C(C)[C@@H](O[C@@H]2OC(C)[C@H](O[C@@H]3C[C@@](C)(O)C(O)C(C)O3)C(N(C)C)C2O)[C@H](CC=O)CC(C)C(=O)/C=C/C(C)=C/[C@@H]1COC1OC(C)C(O)C(OC)[C@@H]1OC` (stereo not given in full) [TYLOSIN TARTRATE] was above 46 µM. Regarding `CCCC(=O)Nc1c(I)cc(I)c(C[C@H](CC)C(=O)O)c1I` [TYROPANOATE SODIUM], the “IC50 of cell viability” value is above 46 µM. Turning to `N[C@@H](Cc1ccc(O)cc1)C(=O)O` [TYROSINE], the “IC50 of cell viability” value is above 46 µM.

As for `CC1(C)S[C@H]2[C@H](NC(=O)[C@@H](N)C3=CC=CC=C3)C(=O)[N@]2[C@H]1C(=O)O[C@@H]4OC(=O)C5=C4C=CC=C5` [Talampicillin hydrochloride], the “IC50 of cell viability” value was above 46 µM.

On to `O=C1[C@@H]2[C@H]3CC[C@H](C3)[C@@H]2C(=O)N1CCCCN1CCN(c2ncccn2)CC1` [Tandospirone], for which the “IC50 of cell viability” value is above 46 µM. Take `COc1cc2c(N3CCN(C(=O)Nc4ccc(OC(C)C)cc4)CC3)ncnc2cc1OCCCN1CCCCC1` [Tandutinib]: the “IC50 of cell viability” value was above 46 µM. Regarding `O=C([O-])c1cccc(/C=C2/C[C@@H]3[C@@H](/C=C/[C@@H](O)C4CCCCC4)[C@H](O)C[C@@H]3O2)c1` [Taprostene sodium salt], the “IC50 of cell viability” value was above 46 µM.

In the case of `O=C([O-])C1=NN(c2ccc(S(=O)(=O)[O-])cc2)C(=O)/C1=N\Nc1ccc(S(=O)(=O)[O-])cc1` [Tartrazine], the “IC50 of cell viability” value is above 46 µM. As for `CCCCOC(=O)C(=O)Nc1cccc(-c2nnn[nH]2)c1` [Tazanolast], the figure is above 46 µM; as for `CC1(Cn2ccnn2)[C@H](C(=O)O)N2C(=O)C[C@H]2[S+]1(=O)[O-]` (stereo not given in full) [Tazobactam sodium], above 46 µM.

For `CC1CN(CCN1)C2=CC3=C(C=C2F)C(=O)\C(=C/N3C4=CC=C(F)C=C4F)C(O)=O` (stereo not given) [Temafloxacin], the “IC50 of cell viability” value was above 46 µM.

Take `CN1C(=O)C(O)N=C(c2ccccc2)c2cc(Cl)ccc21` (stereo not given) [Temazepam]: the “IC50 of cell viability” value is above 46 µM. As for `Oc1cccc(-c2c3nc(c(-c4cccc(O)c4)c4ccc([nH]4)c(-c4cccc(O)c4)c4nc(c(-c5cccc(O)c5)c5ccc2[nH]5)CC4)C=C3)c1` [Temoporfin] [listing 1 of 2 here], the figure is above 46 µM; as for `Oc1cccc(-c2c3nc(c(-c4cccc(O)c4)c4ccc([nH]4)c(-c4cccc(O)c4)c4nc(c(-c5cccc(O)c5)c5ccc2[nH]5)CC4)C=C3)c1` [Temoporfin] [listing 2 of 2 here], above 46 µM; as for `O=C1/C(=C\c2cccs2)CCC/C1=C/c1cccs1` [Tenilidona], above 46 µM.

For `O=C(Nc1ncc([N+](=O)[O-])s1)c1cccs1` [Tenonitrozol], the “IC50 of cell viability” value is above 46 µM. As for `CN1\C(=C(\O)C2=C(C=CS2)[S+]1([O-])=O)C(=O)NC3=CC=CC=N3` [Tenoxicam], the figure is above 46 µM. As for `COc1cc2nc(N3CCN(C(=O)[C@H]4CCCO4)CC3)nc(N)c2cc1OC` [Terazosin hydrochloride], the figure is above 46 µM; as for `CN(C/C=C/C#CC(C)(C)C)Cc1cccc2ccccc12` [Terbinafine], above 46 µM. As for `CC(C)(C)NC[C@H](O)c1cc(O)cc(O)c1` [Terbutaline hemisulfate], the figure is above 46 µM; as for `CC(C)N1CCN(c2ccc(OC[C@@H]3CO[C@@](Cn4cncn4)(c4ccc(Cl)cc4Cl)O3)cc2)CC1` [Terconazole], above 46 µM; as for `CC(C)(C)c1ccc(C(O)CCCN2CCC(C(O)(c3ccccc3)c3ccccc3)CC2)cc1` (stereo not given) [Terfenadine], above 46 µM. Consider `CC(CC(c1ccccc1)c1ccccc1)NC(C)(C)C` (stereo not given) [Terodiline hydrochloride], for which the “IC50 of cell viability” value was above 46 µM. With `CCO[C@@H](Cc1ccc(OCCc2ccc(O[S+](C)(=O)[O-])cc2)cc1)C(=O)O` [Tesaglitazar], the “IC50 of cell viability” value is above 46 µM.

For the compound `C[C@]12C=CC(=O)C=C1CC[C@@H]1C2CC[C@]2(C)OC(=O)CCC12` (stereo not given in full) [Testolactone], the “IC50 of cell viability” value was above 46 µM.

Consider `C[C@]12CCC3[C@@H](CCC4=CC(=O)CC[C@@]43C)C1CCC2OC(=O)CCc1ccccc1` (stereo not given in full) [Testosterone 17-phenylpropionate], for which the “IC50 of cell viability” value was above 46 µM.

For the compound `CCC(=O)O[C@@H]1CC[C@@H]2[C@@H]3CC\C4=C\C(=O)CC[C@@]4(C)[C@H]3CC[C@@]12C` [Testosterone propionate], the “IC50 of cell viability” value is above 46 µM. As to `C[C@]12CC[C@H]3[C@@H](CC/C4=C/C(=O)CC[C@]34C)[C@@H]1CC[C@H]2O` [Testosterone], the “IC50 of cell viability” value was above 46 µM. As for `COc1cc2c(cc1OC)C1CC(=O)C(CC(C)C)CN1CC2` (stereo not given) [Tetrabenazine], the figure is above 46 µM; as for `CN(C)[C@@H]\1[C@@H]2C[C@H]3\C(=C(\O)[C@@]2(O)C(=O)\C(=C1O)C(N)=O)C(=O)C4=C(C=CC=C4O)[C@@]3(C)O` [Tetracycline hydrochloride], above 46 µM.

As to `CCCCCCCCCCCCCC(=O)OC(C)C` [Tetradecanoic acid, 1-methylethyl ester], the “IC50 of cell viability” value is above 46 µM.

As for `CC[N+](CC)(CC)CC.[Cl-]` [Tetraethylammonium chloride], the “IC50 of cell viability” value was above 46 µM.
